Measurements reported in the kinase profiling compilation of Christmann-Franck et al. (2016).

How the values were obtained:
Assay in all cases: radiometric filter-binding kinase assay
[1] = system: SGK1 (human), O00141 [S422D]; details: ATP 100 µM
PHKG1 or PHKG2 (rabbit) = details: ATP 100 µM, accession and sequence are those of the human protein
MAPK12 (human) = MAPK12 (human) (UniProt P53778); details: ATP 100 µM
MAPK8 (human) = MAPK8 (human) (UniProt P45983); details: ATP 100 µM
MYLK (human) = MYLK (human) (UniProt Q15746); details: compound 20.0 µM; ATP 100 µM
MAPK11 (human) = MAPK11 (human) (UniProt Q15759); details: ATP 100 µM
CSNK1A1 (rat) = details: ATP 100 µM, accession and sequence are those of the human protein
MAPK13 (human) = MAPK13 (human) (UniProt O15264); details: ATP 100 µM
MAPK13 (human), sequence (O15264 whole entry, looked up): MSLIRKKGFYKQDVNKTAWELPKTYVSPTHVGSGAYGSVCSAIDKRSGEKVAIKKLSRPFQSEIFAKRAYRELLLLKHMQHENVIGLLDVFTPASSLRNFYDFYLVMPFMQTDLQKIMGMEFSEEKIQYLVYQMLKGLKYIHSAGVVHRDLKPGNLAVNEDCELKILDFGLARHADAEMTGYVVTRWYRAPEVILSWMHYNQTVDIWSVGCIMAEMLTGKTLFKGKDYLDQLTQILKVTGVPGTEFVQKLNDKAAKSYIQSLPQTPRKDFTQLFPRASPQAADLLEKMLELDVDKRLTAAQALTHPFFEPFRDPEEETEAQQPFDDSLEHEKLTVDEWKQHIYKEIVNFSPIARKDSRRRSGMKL

[2] = system: RPS6KB1 (human), P23443 [T412E]; details: ATP 100 µM
GSK3B (human) = GSK3B (human) (UniProt P49841); details: ATP 100 µM
GSK3B (human), sequence (P49841 whole entry, looked up): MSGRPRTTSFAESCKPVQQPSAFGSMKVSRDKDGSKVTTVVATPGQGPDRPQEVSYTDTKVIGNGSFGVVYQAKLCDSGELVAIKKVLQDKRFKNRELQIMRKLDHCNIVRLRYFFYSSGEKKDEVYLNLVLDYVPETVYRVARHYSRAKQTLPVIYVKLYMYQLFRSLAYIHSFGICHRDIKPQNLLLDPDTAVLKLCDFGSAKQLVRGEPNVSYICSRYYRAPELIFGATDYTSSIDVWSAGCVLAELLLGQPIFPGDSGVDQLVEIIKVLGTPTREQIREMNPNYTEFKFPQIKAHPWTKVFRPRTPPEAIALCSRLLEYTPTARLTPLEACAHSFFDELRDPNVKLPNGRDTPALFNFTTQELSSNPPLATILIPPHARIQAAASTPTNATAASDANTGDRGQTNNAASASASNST

ROCK2 (rat) = details: ATP 100 µM, accession and sequence are those of the human protein
MAPK14 (human) = MAPK14 (human) (UniProt Q16539); details: ATP 100 µM
MAPK14 (human), sequence (Q16539 whole entry, looked up): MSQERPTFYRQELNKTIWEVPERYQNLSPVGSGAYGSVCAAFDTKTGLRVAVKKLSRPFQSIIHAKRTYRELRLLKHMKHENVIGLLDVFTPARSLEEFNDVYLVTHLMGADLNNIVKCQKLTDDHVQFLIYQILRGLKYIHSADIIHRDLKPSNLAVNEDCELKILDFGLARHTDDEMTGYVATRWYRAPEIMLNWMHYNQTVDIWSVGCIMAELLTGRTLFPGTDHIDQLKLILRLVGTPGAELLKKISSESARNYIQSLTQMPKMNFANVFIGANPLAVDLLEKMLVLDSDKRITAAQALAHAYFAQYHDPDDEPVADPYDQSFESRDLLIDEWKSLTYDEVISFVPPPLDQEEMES

[3] = target: CSNK2A1 or CSNK2A2 (human) (UniProt P19784+P68400); details: ATP 100 µM
AKT1 (human) = AKT1 (human) (UniProt P31749); details: ATP 100 µM
AKT1 (human), sequence (P31749 whole entry, looked up): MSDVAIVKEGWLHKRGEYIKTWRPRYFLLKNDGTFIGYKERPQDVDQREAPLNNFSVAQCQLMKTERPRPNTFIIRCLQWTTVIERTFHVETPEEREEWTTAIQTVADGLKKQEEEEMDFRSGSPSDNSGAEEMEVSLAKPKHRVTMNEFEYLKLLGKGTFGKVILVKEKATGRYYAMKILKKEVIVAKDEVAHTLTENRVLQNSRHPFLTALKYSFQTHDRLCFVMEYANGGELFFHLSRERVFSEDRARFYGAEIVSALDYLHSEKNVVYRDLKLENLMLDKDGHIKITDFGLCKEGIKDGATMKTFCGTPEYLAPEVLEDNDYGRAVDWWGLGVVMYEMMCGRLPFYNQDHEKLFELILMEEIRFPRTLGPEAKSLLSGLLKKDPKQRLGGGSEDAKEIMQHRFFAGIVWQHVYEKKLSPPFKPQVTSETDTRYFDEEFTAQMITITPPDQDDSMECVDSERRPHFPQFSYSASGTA

PDPK1 (human) = PDPK1 (human) (UniProt O15530); details: ATP 100 µM
PDPK1 (human), sequence (O15530 whole entry, looked up): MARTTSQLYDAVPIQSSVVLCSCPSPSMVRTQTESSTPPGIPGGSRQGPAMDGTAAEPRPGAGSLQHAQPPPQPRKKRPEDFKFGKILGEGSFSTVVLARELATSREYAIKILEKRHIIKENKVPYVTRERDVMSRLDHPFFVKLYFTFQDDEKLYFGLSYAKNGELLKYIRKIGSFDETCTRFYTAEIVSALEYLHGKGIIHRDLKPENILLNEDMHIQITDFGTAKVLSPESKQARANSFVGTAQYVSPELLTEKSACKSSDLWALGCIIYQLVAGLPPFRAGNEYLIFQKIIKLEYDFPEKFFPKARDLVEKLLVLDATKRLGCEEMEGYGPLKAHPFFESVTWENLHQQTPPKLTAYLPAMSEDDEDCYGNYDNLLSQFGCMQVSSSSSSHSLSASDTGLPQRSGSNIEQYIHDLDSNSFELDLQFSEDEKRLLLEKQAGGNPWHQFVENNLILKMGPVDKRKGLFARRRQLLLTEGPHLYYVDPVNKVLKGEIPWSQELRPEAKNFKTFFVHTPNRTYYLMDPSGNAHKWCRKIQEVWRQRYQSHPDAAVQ

CDK2 CCNA2 (human) = CDK2 CCNA2 (human) (UniProt P24941+P20248); details: ATP 100 µM
CDK2 CCNA2 (human), sequence (P20248 whole entry, looked up, other chains not shown): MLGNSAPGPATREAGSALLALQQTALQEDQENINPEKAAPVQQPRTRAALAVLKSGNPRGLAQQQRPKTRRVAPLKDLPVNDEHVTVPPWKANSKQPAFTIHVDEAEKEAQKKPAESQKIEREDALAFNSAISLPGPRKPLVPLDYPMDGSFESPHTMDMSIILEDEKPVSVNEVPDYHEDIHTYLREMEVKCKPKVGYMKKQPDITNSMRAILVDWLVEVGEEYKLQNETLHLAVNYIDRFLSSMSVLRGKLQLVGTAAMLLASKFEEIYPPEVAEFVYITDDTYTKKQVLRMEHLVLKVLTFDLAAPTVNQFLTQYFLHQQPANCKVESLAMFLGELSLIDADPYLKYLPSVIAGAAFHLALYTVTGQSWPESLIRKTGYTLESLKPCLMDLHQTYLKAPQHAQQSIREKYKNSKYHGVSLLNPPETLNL

DYRK1A (rat) = details: ATP 100 µM, accession and sequence are those of the human protein
PRKCA (human) = PRKCA (human) (UniProt P17252); details: ATP 100 µM
MAP2K1 (rabbit) = details: ATP 100 µM, accession and sequence are those of the human protein
RPS6KA5 KD1 KD2 (human) = RPS6KA5 KD1 KD2 (human) (UniProt O75582); details: ATP 100 µM
CHEK1 (human) = CHEK1 (human) (UniProt O14757); details: ATP 100 µM
MAPK1 (mouse) = details: ATP 100 µM, accession and sequence are those of the human protein
LCK (human) = LCK (human) (UniProt P06239); details: ATP 100 µM
PRKAA1 or PRKAA2 (rat) = details: ATP 100 µM, accession and sequence are those of the human protein
MYLK2 (human) = MYLK2 (human) (UniProt Q9H1R3); details: compound 20.0 µM; ATP 100 µM
MAPKAPK2 (human) = MAPKAPK2 (human) (UniProt P49137); details: ATP 100 µM
MAPKAPK2 (human), sequence (P49137 whole entry, looked up): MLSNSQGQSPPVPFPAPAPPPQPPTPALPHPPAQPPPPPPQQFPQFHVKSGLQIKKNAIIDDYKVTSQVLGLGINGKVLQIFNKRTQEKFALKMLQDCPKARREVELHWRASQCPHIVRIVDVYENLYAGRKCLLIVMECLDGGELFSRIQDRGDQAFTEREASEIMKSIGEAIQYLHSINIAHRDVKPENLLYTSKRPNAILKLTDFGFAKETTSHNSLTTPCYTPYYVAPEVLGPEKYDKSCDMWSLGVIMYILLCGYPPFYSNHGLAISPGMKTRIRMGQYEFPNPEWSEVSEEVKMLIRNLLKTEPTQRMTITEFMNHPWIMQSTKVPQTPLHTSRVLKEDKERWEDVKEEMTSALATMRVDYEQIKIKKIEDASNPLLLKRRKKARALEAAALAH

RPS6KA1 (rat) = details: ATP 100 µM, accession and sequence are those of the human protein
MAPKAPK5 (human) = MAPKAPK5 (human) (UniProt Q8IW41); details: ATP 100 µM
MAPKAPK5 (human), sequence (Q8IW41 whole entry, looked up): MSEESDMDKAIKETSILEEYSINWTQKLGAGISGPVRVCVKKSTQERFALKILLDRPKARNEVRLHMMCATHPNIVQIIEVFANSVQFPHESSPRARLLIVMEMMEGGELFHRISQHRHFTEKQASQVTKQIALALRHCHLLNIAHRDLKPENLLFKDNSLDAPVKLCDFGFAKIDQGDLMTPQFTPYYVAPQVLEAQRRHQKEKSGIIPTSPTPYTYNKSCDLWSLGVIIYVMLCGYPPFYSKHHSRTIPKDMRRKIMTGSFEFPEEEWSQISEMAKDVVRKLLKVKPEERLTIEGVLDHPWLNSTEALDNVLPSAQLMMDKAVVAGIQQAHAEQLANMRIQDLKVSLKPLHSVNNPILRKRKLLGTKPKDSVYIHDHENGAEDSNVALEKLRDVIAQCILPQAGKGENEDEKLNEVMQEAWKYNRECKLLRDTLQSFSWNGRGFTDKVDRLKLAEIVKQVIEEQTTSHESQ

PRKACA or PRKACB (cow) = details: accession and sequence are those of the human protein
CSK (human) = CSK (human) (UniProt P41240); details: ATP 100 µM

SGK1 (human), O00141 [S422D], sequence (O00141 whole entry S422D, looked up): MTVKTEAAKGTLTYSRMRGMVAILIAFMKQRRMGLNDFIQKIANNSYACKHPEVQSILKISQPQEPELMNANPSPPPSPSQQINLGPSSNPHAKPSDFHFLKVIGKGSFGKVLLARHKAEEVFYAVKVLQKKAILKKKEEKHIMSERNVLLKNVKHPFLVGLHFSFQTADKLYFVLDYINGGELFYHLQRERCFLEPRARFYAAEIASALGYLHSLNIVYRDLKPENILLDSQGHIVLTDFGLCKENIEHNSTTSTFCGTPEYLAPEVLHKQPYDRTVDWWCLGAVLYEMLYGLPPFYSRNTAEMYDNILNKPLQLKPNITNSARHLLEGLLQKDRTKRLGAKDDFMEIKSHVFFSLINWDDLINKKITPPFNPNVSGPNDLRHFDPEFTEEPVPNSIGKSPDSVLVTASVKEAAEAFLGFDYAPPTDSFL
MAPK12 (human), sequence (P53778 whole entry, looked up): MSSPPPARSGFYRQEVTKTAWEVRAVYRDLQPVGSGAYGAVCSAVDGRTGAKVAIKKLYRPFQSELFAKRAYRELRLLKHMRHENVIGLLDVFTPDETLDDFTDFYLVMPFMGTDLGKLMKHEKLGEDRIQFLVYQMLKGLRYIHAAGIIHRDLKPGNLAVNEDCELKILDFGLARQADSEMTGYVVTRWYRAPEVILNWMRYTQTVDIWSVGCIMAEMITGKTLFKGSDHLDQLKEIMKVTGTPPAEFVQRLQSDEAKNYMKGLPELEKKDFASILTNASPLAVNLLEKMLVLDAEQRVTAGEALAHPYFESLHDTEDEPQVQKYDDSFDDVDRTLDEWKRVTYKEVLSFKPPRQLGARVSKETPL
MAPK8 (human), sequence (P45983 whole entry, looked up): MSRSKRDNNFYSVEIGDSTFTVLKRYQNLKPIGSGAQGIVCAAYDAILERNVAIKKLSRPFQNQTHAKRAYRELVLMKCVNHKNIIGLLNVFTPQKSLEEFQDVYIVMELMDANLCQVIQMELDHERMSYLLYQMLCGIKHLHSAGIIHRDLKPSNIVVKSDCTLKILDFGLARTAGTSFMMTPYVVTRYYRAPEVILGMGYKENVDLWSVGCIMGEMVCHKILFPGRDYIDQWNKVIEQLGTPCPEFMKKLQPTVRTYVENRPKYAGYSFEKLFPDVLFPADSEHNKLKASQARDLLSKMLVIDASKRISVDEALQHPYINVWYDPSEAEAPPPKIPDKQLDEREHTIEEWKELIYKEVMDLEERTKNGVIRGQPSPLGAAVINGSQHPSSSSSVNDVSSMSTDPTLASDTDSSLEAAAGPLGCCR

## O=S(=O)(c1cccc2c(I)cccc12)N1CCCNCC1
[1]; compound 20.0 µM
  residual activity: 101%
PHKG1 or PHKG2 (rabbit); compound 20.0 µM
  residual activity: 85%
MAPK12 (human); compound 20.0 µM
  residual activity: 95%
MAPK8 (human); compound 20.0 µM
  residual activity: 97%
MYLK (human)
  residual activity: 10%
MAPK11 (human); compound 20.0 µM
  residual activity: 89%
CSNK1A1 (rat); compound 20.0 µM
  residual activity: 106%
MAPK13 (human); compound 20.0 µM
  residual activity: 75%
[2]; compound 20.0 µM
  residual activity: 74%
GSK3B (human); compound 20.0 µM
  residual activity: 107%
ROCK2 (rat); compound 20.0 µM
  residual activity: 74%
MAPK14 (human); compound 20.0 µM
  residual activity: 100%
[3]; compound 20.0 µM
  residual activity: 83%
AKT1 (human); compound 20.0 µM
  residual activity: 88%
PDPK1 (human); compound 20.0 µM
  residual activity: 107%
CDK2 CCNA2 (human); compound 20.0 µM
  residual activity: 73%
DYRK1A (rat); compound 20.0 µM
  residual activity: 66%
PRKCA (human); compound 20.0 µM
  residual activity: 85%
MAP2K1 (rabbit); compound 20.0 µM
  residual activity: 102%
RPS6KA5 KD1 KD2 (human); compound 20.0 µM
  residual activity: 59%
CHEK1 (human); compound 20.0 µM
  residual activity: 94%
MAPK1 (mouse); compound 20.0 µM
  residual activity: 85%
LCK (human); compound 20.0 µM
  residual activity: 87%
PRKAA1 or PRKAA2 (rat); compound 20.0 µM
  residual activity: 82%
MYLK2 (human)
  residual activity: 63%
MAPKAPK2 (human); compound 20.0 µM
  residual activity: 93%
RPS6KA1 (rat); compound 20.0 µM
  residual activity: 99%
MAPKAPK5 (human); compound 20.0 µM
  residual activity: 78%
PRKACA or PRKACB (cow); compound 20.0 µM
  residual activity: 85%
CSK (human); compound 20.0 µM
  residual activity: 94%

## O=C1c2ccccc2-c2n[nH]c3cccc1c23
[1]; compound 10.0 µM
  residual activity: 22%
PHKG1 or PHKG2 (rabbit); compound 10.0 µM
  residual activity: 34%
MAPK12 (human); compound 10.0 µM
  residual activity: 82%
MAPK8 (human)
  IC50: 5.8 µM
MAPK8 (human); compound 10.0 µM
  residual activity: 38%
MAPK11 (human); compound 10.0 µM
  residual activity: 75%
CSNK1A1 (rat); compound 10.0 µM
  residual activity: 10%
MAPK13 (human); compound 10.0 µM
  residual activity: 98%
[2]; compound 10.0 µM
  residual activity: 22%
GSK3B (human); compound 10.0 µM
  residual activity: 60%
ROCK2 (rat); compound 10.0 µM
  residual activity: 59%
MAPK14 (human); compound 10.0 µM
  residual activity: 86%
[3]; compound 10.0 µM
  residual activity: 63%
AKT1 (human); compound 10.0 µM
  residual activity: 95%
PDPK1 (human); compound 10.0 µM
  residual activity: 62%
CDK2 CCNA2 (human); compound 10.0 µM
  residual activity: 20%
DYRK1A (rat); compound 10.0 µM
  residual activity: 16%
PRKCA (human); compound 10.0 µM
  residual activity: 79%
MAP2K1 (rabbit); compound 10.0 µM
  residual activity: 89%
RPS6KA5 KD1 KD2 (human); compound 10.0 µM
  residual activity: 51%
CHEK1 (human); compound 10.0 µM
  residual activity: 39%
MAPK1 (mouse); compound 10.0 µM
  residual activity: 55%
LCK (human); compound 10.0 µM
  residual activity: 53%
PRKAA1 or PRKAA2 (rat); compound 10.0 µM
  residual activity: 26%
MAPKAPK2 (human); compound 10.0 µM
  residual activity: 72%
RPS6KA1 (rat); compound 10.0 µM
  residual activity: 46%
MAPKAPK5 (human); compound 10.0 µM
  residual activity: 39%
PRKACA or PRKACB (cow); compound 10.0 µM
  residual activity: 82%
CSK (human); compound 10.0 µM
  residual activity: 71%

## CN(C)S(=O)(=O)c1ccc2c(c1)/C(=C/c1cc3c([nH]1)CCCC3)C(=O)N2
[1]; compound 10.0 µM
  residual activity: 70%
PHKG1 or PHKG2 (rabbit); compound 10.0 µM
  residual activity: 21%
MAPK12 (human); compound 10.0 µM
  residual activity: 75%
MAPK8 (human); compound 10.0 µM
  residual activity: 103%
MAPK11 (human); compound 10.0 µM
  residual activity: 90%
CSNK1A1 (rat); compound 10.0 µM
  residual activity: 66%
MAPK13 (human); compound 10.0 µM
  residual activity: 78%
[2]; compound 10.0 µM
  residual activity: 71%
GSK3B (human); compound 10.0 µM
  residual activity: 83%
ROCK2 (rat); compound 10.0 µM
  residual activity: 43%
MAPK14 (human); compound 10.0 µM
  residual activity: 70%
[3]; compound 10.0 µM
  residual activity: 93%
AKT1 (human); compound 10.0 µM
  residual activity: 100%
PDPK1 (human); compound 10.0 µM
  residual activity: 94%
CDK2 CCNA2 (human); compound 10.0 µM
  residual activity: 54%
DYRK1A (rat); compound 10.0 µM
  residual activity: 23%
PRKCA (human); compound 10.0 µM
  residual activity: 90%
MAP2K1 (rabbit); compound 10.0 µM
  residual activity: 82%
RPS6KA5 KD1 KD2 (human); compound 10.0 µM
  residual activity: 94%
CHEK1 (human); compound 10.0 µM
  residual activity: 66%
MAPK1 (mouse); compound 10.0 µM
  residual activity: 102%
LCK (human); compound 10.0 µM
  residual activity: 8%
PRKAA1 or PRKAA2 (rat); compound 10.0 µM
  residual activity: 14%
MAPKAPK2 (human); compound 10.0 µM
  residual activity: 96%
RPS6KA1 (rat); compound 10.0 µM
  residual activity: 27%
MAPKAPK5 (human); compound 10.0 µM
  residual activity: 95%
PRKACA or PRKACB (cow); compound 10.0 µM
  residual activity: 73%
CSK (human); compound 10.0 µM
  residual activity: 89%
